Assay results: patent US20110105554A1, “MEANS FOR TREATING MYOSIN-RELATED DISEASES” (KINARIS BIOMEDICALS GMBH, priority 2007, published 2011)

Columns and labels:
[1] = biological target: T1, DdMyosin-5b (Dictyostelium discoideum, UniProt P54697); assay: mantATP binding to DdMyosin-5b (stopped-flow)
T1 construct: comprising amino acids 1-698, 1-765, and 1-839 respectively; made in house
Procedure: Effect of Pentabromopseudilin on ATP binding kinetics to DdMyosin-5b and acto-DdMyosin-5b. (FIG. 10a) Fluorescence transients obtained upon mixing 1 μM DdMyosin-5b with 10 μM mantATP in the absence and presence of 5 μM, 25 μM, 50 μM and 100 μM PBP. Mant-fluorescence was excited at 365 nm and detected after passing through a KV 389 nm cut-off filter. The fluorescent signal of mantATP binding to DdMyosin-5b in the absence of PBP follows a single exponential function (upper curve). The presence of increasing concentrations of PBP lead to reduced amplitudes of the fluorescent signals that are best fit by double exponentials. (FIG. 10b) Plot of the relative amplitudes of mantATP binding to Dd Myosin-5b at different PBP concentrations. […] (FIG. 10c) Fluorescence transients of the ATP induced dissociation of pyrene-acto-DdMyosin-5b in the absence (black curve) and presence (grey curve) of 50 μM PBP. (FIG. 10d) Quench-flow experiments of the ATP hydrolysis reaction upon mixing 5 μM M761 with 25 μM ATP in the absence (solid squares) and presence (open circles) of 50 μM PBP. […]
The binding and hydrolysis of ATP and mantATP, respectively by myosin head fragments were analyzed in terms of the seven-step model described by Bagshaw and coworkers (4). Transients in the presence of actin were analyzed according to the mechanisms described in references 5 and 6.

[2] = biological target: T2, M761 (myosin-2 motor domain from D. discoideum) (Dictyostelium discoideum, UniProt P08799, C312Y/S249N); assay: Quench-flow ATP hydrolysis (Pi-burst) with M761; assay type: biochemical; conditions: 50 μM PBP
T2 construct: amino acids 3 to 761 of myosin-2 from D. discoideum; His-tag (N); made in house; host or cells: D. discoideum AX3-ORF+ cells
T2 sequence (P08799 3-761 S249N/C312Y): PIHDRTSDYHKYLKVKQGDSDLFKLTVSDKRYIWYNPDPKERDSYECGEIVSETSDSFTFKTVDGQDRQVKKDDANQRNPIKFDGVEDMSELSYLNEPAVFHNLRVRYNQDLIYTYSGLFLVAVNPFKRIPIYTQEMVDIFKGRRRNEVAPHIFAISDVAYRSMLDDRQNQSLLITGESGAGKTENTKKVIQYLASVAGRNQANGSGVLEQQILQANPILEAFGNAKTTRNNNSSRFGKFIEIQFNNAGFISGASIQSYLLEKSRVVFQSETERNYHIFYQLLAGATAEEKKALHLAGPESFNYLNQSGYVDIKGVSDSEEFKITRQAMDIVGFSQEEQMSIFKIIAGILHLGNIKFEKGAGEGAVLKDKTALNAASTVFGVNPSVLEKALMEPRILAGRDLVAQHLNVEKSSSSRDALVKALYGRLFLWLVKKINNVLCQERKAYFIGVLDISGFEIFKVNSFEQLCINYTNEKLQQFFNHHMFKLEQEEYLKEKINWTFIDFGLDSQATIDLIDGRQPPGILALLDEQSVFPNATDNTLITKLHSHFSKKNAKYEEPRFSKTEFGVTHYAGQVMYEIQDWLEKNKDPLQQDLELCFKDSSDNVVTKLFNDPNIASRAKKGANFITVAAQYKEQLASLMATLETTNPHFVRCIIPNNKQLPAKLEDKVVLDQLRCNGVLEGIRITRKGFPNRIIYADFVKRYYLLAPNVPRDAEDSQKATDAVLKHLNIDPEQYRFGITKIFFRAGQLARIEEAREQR
Procedure: Effect of Pentabromopseudilin on ATP binding kinetics to DdMyosin-5b and acto-DdMyosin-5b. (FIG. 10a) Fluorescence transients obtained upon mixing 1 μM DdMyosin-5b with 10 μM mantATP in the absence and presence of 5 μM, 25 μM, 50 μM and 100 μM PBP. Mant-fluorescence was excited at 365 nm and detected after passing through a KV 389 nm cut-off filter. The fluorescent signal of mantATP binding to DdMyosin-5b in the absence of PBP follows a single exponential function (upper curve). The presence of increasing concentrations of PBP lead to reduced amplitudes of the fluorescent signals that are best fit by double exponentials. (FIG. 10b) Plot of the relative amplitudes of mantATP binding to Dd Myosin-5b at different PBP concentrations. […] (FIG. 10c) Fluorescence transients of the ATP induced dissociation of pyrene-acto-DdMyosin-5b in the absence (black curve) and presence (grey curve) of 50 μM PBP. (FIG. 10d) Quench-flow experiments of the ATP hydrolysis reaction upon mixing 5 μM M761 with 25 μM ATP in the absence (solid squares) and presence (open circles) of 50 μM PBP. The Pi-burst (kburst=7.8±0.2 sin the absence and 2.5±0.1 s^−1 in the presence of PBP) was followed by a linear steady-state phase. […]
Quench-flow Experiments. […] The relative amounts of […] and ATP were quantified using a phosphorimager (Fujix BAS1000, Fuji), the software MacBAS V 2.4, TINA V 2.09f, and Origin 7.0.

[3] = system: heavy meromyosin (HMM) prepared from rabbit skeletal muscle myosin-2; assay: Inhibitor screening: colorimetric high-throughput myosin ATPase assay with HMM; assay type: biochemical
From the text: Preferably, said activity is the capability of said myosin (i) to bind actin; (ii) to convert ATP into ADP and Pi; and/or (iii) to generate force and/or movement. Exemplary or preferred binding assays are described herein above and can be applied for determining whether myosin binds actin, preferably F-actin, and/or nucleotides. Exemplary or preferred activity assays are described herein below and can be applied for determining whether myosin is capable of converting ATP into ADP and Pi or of force production and generation of movement. An exemplary assay for ATPase activity is based on the detection of free phosphate formed upon cleavage of ATP, wherein the detection is effected using malachite green. For an exemplary workflow, see FIG. 17.
FIG. 6: Histogram showing the relative myosin-2 ATPase activity measured in the absence (+control) and presence of halogenated alkaloids. Blebbistatin und BTS were used as controls. Compounds of the HET-series, BTS and blebbistatin were used at 25 μM final concentration. HET-43 is PBP (pentabromopseudilin). […]
Inhibitor screening. […] The amount of dye formed after 20 min color development at room temperature was determined with a Tecan Infinite™ microplate reader (Cralisheim, Germany).

T1 sequence (P54697 1-839): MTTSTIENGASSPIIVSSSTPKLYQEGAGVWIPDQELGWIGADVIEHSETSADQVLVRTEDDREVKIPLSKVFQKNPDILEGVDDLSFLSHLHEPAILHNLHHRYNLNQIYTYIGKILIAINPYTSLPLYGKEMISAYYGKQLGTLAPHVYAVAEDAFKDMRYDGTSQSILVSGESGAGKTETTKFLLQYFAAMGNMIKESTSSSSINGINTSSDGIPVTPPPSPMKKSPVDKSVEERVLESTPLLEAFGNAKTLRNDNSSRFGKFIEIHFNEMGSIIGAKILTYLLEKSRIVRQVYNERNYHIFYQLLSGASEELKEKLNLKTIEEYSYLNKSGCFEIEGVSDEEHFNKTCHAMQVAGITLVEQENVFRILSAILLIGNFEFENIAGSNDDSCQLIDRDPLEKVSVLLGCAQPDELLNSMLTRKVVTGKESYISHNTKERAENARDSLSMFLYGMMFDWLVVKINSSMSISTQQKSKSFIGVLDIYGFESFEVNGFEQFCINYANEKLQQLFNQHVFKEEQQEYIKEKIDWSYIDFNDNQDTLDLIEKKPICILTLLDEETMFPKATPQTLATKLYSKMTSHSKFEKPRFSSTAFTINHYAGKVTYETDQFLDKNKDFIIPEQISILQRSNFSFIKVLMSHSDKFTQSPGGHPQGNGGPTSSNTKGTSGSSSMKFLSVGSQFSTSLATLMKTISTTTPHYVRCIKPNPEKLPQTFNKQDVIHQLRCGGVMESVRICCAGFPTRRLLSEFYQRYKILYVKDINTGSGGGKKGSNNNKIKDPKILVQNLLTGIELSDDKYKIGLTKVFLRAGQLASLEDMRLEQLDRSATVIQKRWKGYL

SMILES: Oc1c(Br)cc(Br)cc1-c1[nH]c(Br)c(Br)c1Br [KIN-43]
- Kd [1]: 21 ± 2 µM
- Pi-burst rate kburst ([2]; 5 μM M761, 25 μM ATP): 2.5 ± 0.1 s⁻¹
- amplitude of the burst ([2]; 0.95 in the absence): 0.5
- inhibition of HMM ATPase activity [3]: very potent inhibitor
